Laboratory results: PubChem BioAssay AID248 (DTP/NCI, 2004)
Where “and” joins values, the source holds several entries; their conditions need not be identical. Equal entries are not always repeated. Toxic doses and inconclusive results are not listed. No stated cut-off is given here; in the data, active means T/C of 150% or more; inactive means T/C below 125%.

Tested on: L1210 leukemia ip in BDF1 mice, survival T/C
Assay: NCI In Vivo Anticancer Drug Screen. Data for tumor model L1210 Leukemia (intraperitoneal) in B6D2F1 (BDF1) mice
Settings: endpoint: mean survival time, higher = longer survival
Description: The antitumor activity of compounds was measured in mice bearing transplantable tumors. Survival or tumor size were measured and the results are expressed as the measurement made in the treated group (T) divided by the measurement made in the vehicle treated control group (C). The tumor model used in this assay is L1210 Leukemia (intraperitoneal) in B6D2F1 (BDF1) mice

[1] = dose: 100.0 mg/kg/injection, schedule: Q01DX001 (ip), vehicle: saline
[2] = dose: 200.0 mg/kg/injection, schedule: Q01DX001 (ip), vehicle: saline
[3] = dose: 400.0 mg/kg/injection, schedule: Q01DX001 (ip), vehicle: saline
[4] = dose: 100.0 mg/kg/injection, schedule: Q04DX003 (ip), vehicle: Klucel (hydroxypropylcellulose) (HPC)
[5] = dose: 200.0 mg/kg/injection, schedule: Q04DX003 (ip), vehicle: Klucel (hydroxypropylcellulose) (HPC)
[6] = dose: 400.0 mg/kg/injection, schedule: Q04DX003 (ip), vehicle: Klucel (hydroxypropylcellulose) (HPC)
[7] = dose: 100.0 mg/kg/injection, schedule: Q04DX003 (ip), vehicle: saline
[8] = dose: 200.0 mg/kg/injection, schedule: Q04DX003 (ip), vehicle: saline
[9] = dose: 400.0 mg/kg/injection, schedule: Q04DX003 (ip), vehicle: saline
[10] = dose: 50.0 mg/kg/injection, schedule: Q04DX002 (ip), vehicle: saline
[11] = dose: 100.0 mg/kg/injection, schedule: Q04DX002 (ip), vehicle: saline
[12] = dose: 200.0 mg/kg/injection, schedule: Q04DX002 (ip), vehicle: saline
[13] = dose: 100.0 mg/kg/injection, schedule: Q01DX009 (ip), vehicle: saline
[14] = dose: 200.0 mg/kg/injection, schedule: Q01DX009 (ip), vehicle: saline

Measured: T/C

CCC(O)C(C)CO (stereo unspecified)
inactive: [1] 103 % of control | [2] 121 % of control | [3] 97 % of control

CC(=O)Nc1ccc2cnn(C(C)=O)c2c1
inactive: dose: 50.0 mg/kg/injection, schedule: Q01DX009 (ip), vehicle: water 94 % of control | dose: 100.0 mg/kg/injection, schedule: Q01DX009 (ip), vehicle: water 98 % of control | dose: 100.0 mg/kg/injection, schedule: Q04DX003 (ip), vehicle: water 104 % of control | dose: 200.0 mg/kg/injection, schedule: Q01DX009 (ip), vehicle: water 100 % of control | dose: 200.0 mg/kg/injection, schedule: Q04DX003 (ip), vehicle: water 94 % of control | dose: 400.0 mg/kg/injection, schedule: Q04DX003 (ip), vehicle: water 106 % of control

O=C(CC1(O)C(=O)Nc2ccc(Br)cc21)c1ccc2c(c1)OCO2 (stereo unspecified)
inactive: dose: 100.0 mg/kg/injection, schedule: Q04DX002 (ip), vehicle: Klucel (hydroxypropylcellulose) (HPC) 92 % of control | dose: 200.0 mg/kg/injection, schedule: Q04DX002 (ip), vehicle: Klucel (hydroxypropylcellulose) (HPC) 104 % of control | dose: 400.0 mg/kg/injection, schedule: Q04DX002 (ip), vehicle: Klucel (hydroxypropylcellulose) (HPC) 95 % of control

Cc1cc(=O)[nH]c(N2CCOCC2)n1
inactive: [1] 106 % of control | [2] 101 % of control

CC(C)NC(=O)OC(C)C
inactive: [4] 96 % of control | [5] 104 % of control | [6] 98 % of control

CCCCOCC(C)O (stereo unspecified)
inactive: [7] 91 % of control | [8] 96 % of control | [9] 96 % of control

CN(C)Cc1cc2ccccc2cc1C(O)(c1ccccc1)c1ccccc1
inactive: dose: 50.0 mg/kg/injection, schedule: Q01DX001 (ip), vehicle: carboxymethylcellulose (CMC) 102 % of control | dose: 100.0 mg/kg/injection, schedule: Q01DX001 (ip), vehicle: carboxymethylcellulose (CMC) 88 % of control | dose: 200.0 mg/kg/injection, schedule: Q01DX001 (ip), vehicle: carboxymethylcellulose (CMC) 94 % of control | dose: 400.0 mg/kg/injection, schedule: Q01DX001 (ip), vehicle: carboxymethylcellulose (CMC) 96 % of control

CC(=O)OC12C3CCCC1CCCC2CCC3 (stereo unspecified)
inactive: [4] 109 % of control | [5] 93 % of control | [6] 93 % of control

NC1=NC(=O)/C(=C/c2ccco2)S1
inactive: dose: 75.0 mg/kg/injection, schedule: Q01DX001 (ip), vehicle: saline 98 % of control | dose: 150.0 mg/kg/injection, schedule: Q01DX001 (ip), vehicle: saline 93 % of control | dose: 300.0 mg/kg/injection, schedule: Q01DX001 (ip), vehicle: saline 90 % of control

CC1=CC(=O)NP(=O)(Oc2ccc3ccccc3c2)N1 (stereo unspecified)
inactive: dose: 50.0 mg/kg/injection, schedule: Q01DX005 (ip), vehicle: other 95 % of control | dose: 100.0 mg/kg/injection, schedule: Q01DX005 (ip), vehicle: other 96 % of control | dose: 200.0 mg/kg/injection, schedule: Q01DX005 (ip), vehicle: other 95 % of control | dose: 400.0 mg/kg/injection, schedule: Q01DX005 (ip), vehicle: other 92 % of control

CC(=O)OC1C(C[N+](=O)[O-])OC(n2cnc3c(NC(=O)c4ccccc4)ncnc32)C(OC(C)=O)C1OC(C)=O (stereo unspecified)
inactive: [10] 102 % of control | [11] 100 % of control | [12] 121 % of control

Cn1c(=O)cc(CC#N)c2ccccc21
inactive: dose: 100.0 mg/kg/injection, schedule: Q01DX001 (ip), vehicle: other 100 % of control

CCCCOCc1c(CO)cnc(C)c1O
inactive: dose: 25.0 mg/kg/injection, schedule: Q04DX002 (ip), vehicle: saline 99 % of control | [10] 96 % of control | [11] 93 % of control and 96 % of control

Clc1ccccc1Nc1nnnc2ccccc12
inactive: dose: 50.0 mg/kg/injection, schedule: Q01DX009 (ip), vehicle: saline 91 % of control | [13] 95 % of control | dose: 100.0 mg/kg/injection, schedule: Q04DX003 (ip), vehicle: acetone 96 % of control | [14] 90 % of control | dose: 200.0 mg/kg/injection, schedule: Q04DX003 (ip), vehicle: acetone 100 % of control | dose: 400.0 mg/kg/injection, schedule: Q04DX003 (ip), vehicle: acetone 98 % of control

Cc1ccc(NC(=O)N(CCO)C2CCCCC2)c([N+](=O)[O-])c1
inactive: [4] 87 % of control | [5] 98 % of control | [6] 96 % of control

CCOC(=O)CC(=O)CCc1ccccc1
inactive: [1] 104 % of control | [13] 94 % of control and 100 % of control | [11] 103 % of control and 105 % of control | [7] 113 % of control | [2] 104 % of control | [14] 94 % of control and 102 % of control | [12] 100 % of control and 108 % of control | [8] 106 % of control | [3] 103 % of control | dose: 400.0 mg/kg/injection, schedule: Q01DX009 (ip), vehicle: saline 92 % of control and 97 % of control | dose: 400.0 mg/kg/injection, schedule: Q04DX002 (ip), vehicle: saline 96 % of control and 102 % of control | [9] 105 % of control

N#Cc1cc(Cl)c2c(c1Cl)Nc1c(Cl)ccc(Cl)c1S2
inactive: dose: 50.0 mg/kg/injection, schedule: Q01DX001 (ip), vehicle: saline 96 % of control | [1] 96 % of control | [2] 96 % of control | [3] 102 % of control

Cc1cc2oc(C)[n+](Cc3ccccc3)c2cc1C
inactive: dose: 100.0 mg/kg/injection, schedule: Q01DX009 (ip), vehicle: saline with Tween-80 105 % of control and 86 % of control | dose: 100.0 mg/kg/injection, schedule: Q04DX003 (ip), vehicle: saline with Tween-80 97 % of control | dose: 200.0 mg/kg/injection, schedule: Q01DX009 (ip), vehicle: saline with Tween-80 96 % of control and 110 % of control | dose: 200.0 mg/kg/injection, schedule: Q04DX003 (ip), vehicle: saline with Tween-80 95 % of control | dose: 400.0 mg/kg/injection, schedule: Q04DX003 (ip), vehicle: saline with Tween-80 95 % of control

CC12C(C#N)=C(c3ccccc3)C=C(c3ccccc3)C1=C(c1ccccc1)c1ccccc12 (stereo unspecified)
inactive: dose: 100.0 mg/kg/injection, schedule: Q01DX009 (ip), vehicle: Klucel (hydroxypropylcellulose) (HPC) 100 % of control | [4] 89 % of control | dose: 200.0 mg/kg/injection, schedule: Q01DX009 (ip), vehicle: Klucel (hydroxypropylcellulose) (HPC) 100 % of control | [5] 100 % of control | dose: 400.0 mg/kg/injection, schedule: Q01DX009 (ip), vehicle: Klucel (hydroxypropylcellulose) (HPC) 94 % of control | [6] 94 % of control

Nc1ccc(N=Nc2ccccc2)c(N)n1
inactive: [4] 89 % of control | [7] 97 % of control | [5] 90 % of control

Cc1cc(C)c(C(Br)C(Br)c2c(C)cc(C)cc2C)c(C)c1 (stereo unspecified)
inactive: dose: 12.5 mg/kg/injection, schedule: Q01DX009 (ip), vehicle: saline with Tween-80 88 % of control | dose: 12.5 mg/kg/injection, schedule: Q04DX003 (ip), vehicle: saline with Tween-80 98 % of control | dose: 25.0 mg/kg/injection, schedule: Q01DX009 (ip), vehicle: saline with Tween-80 87 % of control | dose: 25.0 mg/kg/injection, schedule: Q04DX003 (ip), vehicle: saline with Tween-80 93 % of control | dose: 50.0 mg/kg/injection, schedule: Q04DX003 (ip), vehicle: saline with Tween-80 91 % of control

CC(C)(C)c1ccc(SC(=O)NCCCl)cc1
inactive: dose: 20.0 mg/kg/injection, schedule: Q04DX003 (ip), vehicle: Klucel (hydroxypropylcellulose) (HPC) 97 % of control | dose: 40.0 mg/kg/injection, schedule: Q04DX003 (ip), vehicle: Klucel (hydroxypropylcellulose) (HPC) 98 % of control | dose: 80.0 mg/kg/injection, schedule: Q04DX003 (ip), vehicle: Klucel (hydroxypropylcellulose) (HPC) 90 % of control | [4] 106 % of control | [5] 91 % of control

CNc1c2c(nc3ccccc13)CCCC2
inactive: dose: 1.25 mg/kg/injection, schedule: Q01DX009 (ip), vehicle: saline with Tween-80 93 % of control | dose: 1.25 mg/kg/injection, schedule: Q04DX003 (ip), vehicle: saline with Tween-80 97 % of control | dose: 2.5 mg/kg/injection, schedule: Q01DX009 (ip), vehicle: saline with Tween-80 91 % of control | dose: 2.5 mg/kg/injection, schedule: Q04DX003 (ip), vehicle: saline with Tween-80 108 % of control | dose: 5.0 mg/kg/injection, schedule: Q01DX009 (ip), vehicle: saline with Tween-80 89 % of control | dose: 5.0 mg/kg/injection, schedule: Q04DX003 (ip), vehicle: saline with Tween-80 102 % of control
